Measurements reported in patent US20030153080A1, “Methods for improving conifer embryogenesis” (priority 2002, published 2003).

Tests used:
Type in all cases: cell-based
[1] = test system: loblolly pine megagametophytes; experiment: Zygotic initiation test with megagametophyte explants (extrusion and initiation); settings: for effect on extrusion and initiation efficiency: 0.1 mg/L alone (media 1357, 1359), compared with medium 1391; for early extrusion and embryo expansion: supplement present in the medium
Method: (§1) Megagametophyte explants were isolated for zygotic initiation tests from loblolly pine summer cones when embryos were at approximately stage 2-4. Seeds were collected from four individual trees of diverse genotypes. Extracted seeds were soaked in running water for 10 minutes, agitated in 10% liquinox supplemented with 2 drops of Tween 20/L (polyoxyethylene-sorbitan monolaurate) for 10 minutes, and rinsed with water for 30 minutes. Seeds were sterilized in a laminar flow hood by agitating in 20% hydrogen peroxide for 10 minutes and rinsing with sterile deionized water. The seed coats, integuments and nucellus were removed to isolate the megagametophytes. Culturing was performed in 24-well culture plates with each well having an approximate volume of 3.0 ml. Two milliliters of media were added into each well.
Zygotic and somatic initiation tests were conducted to determine the effect of alpha-ketoglutaric acid in combination with vitamins B12 and E on initiation. Explants of loblolly pine were obtained and treated as described in Example 1 with the following modifications. Each replication consisted of ten adjacent wells on a multiwell plate, with one megagametophyte per well. Ten replications, for a total of 100 seeds, were performed per treatment for each cone collection.
According to the protocol of Example 1, four loblolly pine cone collections of approximately 500 seeds per collection with embryos at stages 2-4 were selected. Seeds were sterilized and dissected. […] Average initiation across the cone collections was roughly 30% for embryos grown on the control medium and roughly 36% for embryos grown on the test medium.

[2] = test system: loblolly pine somatic embryos; experiment: Single somatic embryo initiation test (colony diameter); settings: for Mean Colony Diameter: 0.1 mg/L added to medium 1253, measured at 4½ weeks
Method: (§2) For somatic initiation tests, embryos were selected from a liquid suspension culture supplemented with abscisic acid. (Table 1B, medium 16). Each replication consisted of ten adjacent wells on a multiwell plate, with a single stage 2, somatic embryo per well, providing two replications per multiwell plate. Four replications (for a total of 40 explants) were performed per treatment for each genotype. The plates were wrapped in Parafilme wrap to minimize evaporation and incubated at 22-24° C. in the dark for 4-6 weeks or until colony diameters were roughly ¾-1 cm. Typically, a single stage 2 embryo is approximately 0.1 mm in size. During this time period, the single embryo multiplies to form an embryogenic tissue mass of about 5-9 mm in diameter depending on the particular conifer, culture genotype, medium contents, and time. Changes in tissue diameters were used to assay the effects of vitamins or organic acid on early-stage embryo growth and multiplication. Colony diameters were measured using a dissecting scope ocular micrometer.
Osmolarity and pH of the culture media were monitored to ensure that these factors were similar throughout various conditions, and therefore, were not contributing to the observed differences. To analyze the results, the ANOVA statistical analysis was performed.
Single somatic embryo initiation tests were conducted to determine the effect of various vitamins on initiation. Embryos of loblolly pine were obtained and treated as described in Example 1. Isolated explants were incubated either in a control medium (Table 1A, medium 1253), or in the same medium supplemented with the K&M vitamin mixture (Table 1A, medium 1335). […] Evaluation of specific components of the K&M vitamin mixture lead to identification of the components responsible for the observed increase.
Single somatic embryo initiation tests were conducted to determine the effect of alpha-ketoglutaric acid on initiation in loblolly pine. Embryos of loblolly pine were obtained and treated as described in Example 1. The inventors note that a modification to the protocol detailed in Example 1 may be required due to the addition of an organic acid to the base medium. The addition of an acid, such as alpha-ketoglutaric acid, causes media pH to drop and therefore, all media supplemented with alpha-ketoglutaric acid were titrated to pH 5.7 before adding them to the cultures. Titration was performed with KOH, which increased potassium levels in the media by about 0.7 mM.
Single somatic embryo initiation tests were conducted according to the protocol described in Example 1. The inventors note that modification to the protocol detailed in Example 1 may be required due to the addition of an organic acid to the base medium. In culture medium containing 60.72 mg/L pyruvic acid (Table 1B, medium 1462) mean tissue diameter was 7.1 mm compared to a mean tissue diameter of 6.1 for embryos grown on the control medium 1253 indicating a positive correlation between embryo exposure to pyruvic acid and overall initiation. Iterations of this example in loblolly pine yielded similar percentage increases in initiation, e.g., a 7.2 mm mean tissue diameter for medium containing 0.52 mM pyruvic acid compared to 6.5 mm mean tissue diameter in the control medium. As shown herein, this effect is further enhanced by the combinations of multiple organic acids.

[3] = test system: Douglas Fir zygotic embryos; experiment: Zygotic embryo initiation test
Method: as §1
Embryos of Douglas Fir were obtained, and treated as described in Example 1.
A further example is provided for Douglas Fir. Douglas Fir zygotic embryos were tested for improved initiation when exposed to cultures containing pyruvic acid according to the protocol described in Example 1. Control medium 121 (Table 1C) was supplemented with 60.7 mg/L pyruvic acid to create the test medium (Table 1C, medium 1625). After incubation for eight weeks in the dark, initiation was scored. For tissue exposed to pyruvic acid, mean initiation rates were approximately 35% compared to 32% for the untreated embryos.

[4] = test system: loblolly pine stage 2 somatic embryos; experiment: Somatic embryo capture test in multiplication medium (colony diameter)
Method: as §2
Tests were conducted to determine the effect on somatic embryo capture of a medium supplemented with individual organic acids, such as alpha-ketoglutaric acid. Embryos of loblolly pine were obtained and treated as described in Example 1. Individual stage 2 embryos were selected from liquid maintenance medium and placed in multiplication medium (Table 1B, medium 1250).
Embryos of loblolly pine were obtained and treated as described in Example 1. Individual stage 2 embryos were selected from liquid maintenance medium and placed in multiplication medium (Table 1B, medium 1250). Stage 2 embryos were likewise placed in medium 1250 supplemented with 60.7 mg/L pyruvic acid (Table 1C, medium 1635). All cultures were incubated in the dark at 24-26° C. for 4-5 weeks.
A representative example for somatic capture uses embryos of loblolly pine obtained and treated as described in Example 1. Individual stage 2 embryos were selected from liquid maintenance medium and placed in multiplication medium (Table 1B, medium 1250). Compared to this control, the addition of 0.1 mg/L vitamin B12 alone to the multiplication medium (Table 1B, medium 1250) increased mean colony diameter by approximately 5%. Likewise, the addition of 100 mg/L alpha-ketoglutaric acid alone to the […] (Table 1B, medium 1250) increased mean colony diameter by approximately 10%.
Individual stage 2 embryos were selected from liquid maintenance medium and placed in multiplication control medium (Table 1B, medium 1250), as well as medium 1638, which is supplemented with 0.1 mg/L vitamin B12, 0.1 mg/L vitamin E, 100 mg/L alpha-ketoglutaric acid and 60.7 mg/L pyruvic acid (Table 1C, medium 1638). […]

[5] = test system: Norway Spruce somatic embryos; experiment: Single somatic embryo initiation test (tissue diameter); settings: 60.7 mg/L (medium 1664); control medium 1662 gave 2.8 mm
Method: as §2
Tissue isolated and prepared according to Example 1 was incubated in a medium containing 0.1 mg/L of both vitamin B12 and E for 4-5 weeks in the dark at 24-26° C. (Table 1 D, medium 1665). Tissue cultured in medium 1665 achieved an average diameter of 3.1 mm compared to tissue cultured in the control medium, which achieved an average diameter of 2.8 mm. […]

vitamin E
effect on extrusion and initiation efficiency [1]: some, but a lesser effect | early extrusion and embryo expansion [1]: more robust | Mean Colony Diameter [2]: 4.65 mm

Nc1ccc(C(=O)O)cc1 [p-aminobenzoic acid]
initiation ([3]; 20 mg/L (medium 1627), base medium 121 gave 32%): 39% | increase in mean colony diameter as compared to the control ([2]; 0.2 ppm (medium 1434) vs control medium 1253): 32%

O=C(O)CCC(=O)C(=O)O [alpha-ketoglutaric acid]
early extrusion and embryo expansion [1]: more robust | levels of initiation vs control medium 121 ([3]; 100 mg/L (medium 1624)): higher levels of initiation | increase in mean colony diameter vs medium 1250 ([4]; 100 mg/L alpha-ketoglutaric acid alone): approximately 10% | increase in mean colony diameter ([4]; only additive to control medium 1250, between 100 and 200 mg/L): 5-6% | levels of initiation higher than control as measured by mean colony diameter ([2]; 100 ppm (medium 1342) vs control medium 1253, titrated to pH 5.7): 20%

CC(=O)C(=O)O [pyruvic acid]
mean initiation rates ([3]; 60.7 mg/L (medium 1625), eight weeks in the dark, untreated 32%): approximately 35% | average diameter ([4]; 60.7 mg/L in medium 1250 (medium 1635), dark, 24-26° C., 4-5 weeks, control 3.3 mm): roughly 3.7 mm | mean diameters [5]: 3.6 mm | mean tissue diameter ([2]; 0.52 mM, iteration of the example, control medium gave 6.5 mm): 7.2 mm | mean tissue diameter ([2]; 60.72 mg/L (medium 1462), control medium 1253 gave 6.1): 7.1 mm

vitamin B12 [reference compound]
effect on extrusion and initiation efficiency [1]: some, but a lesser effect | increase in mean colony diameter vs medium 1250 ([4]; 0.1 mg/L vitamin B12 alone): approximately 5% | Mean Colony Diameter [2]: 4.88 mm
